This note sets out measurements from ChEMBL document CHEMBL1141324, “Saponins from the roots of Nylandtia spinosa” (J Nat Prod, 2007).

The subject of experiment [1] is HT-29. Kind of experiment: Cytotoxicity against human HT29 cells by MTT assay. It counts as functional, cell-based.
The subject of experiment [2] is HCT-116. Put plainly: Cytotoxicity against human HCT116 cells by MTT assay. It counts as functional, cell-based. For orientation: Tetrazolium assays rely on reduction of a dye to a coloured formazan, in cell work by metabolically active cells.

≈ marks a conversion by molar mass, not a printed value.

`C[C@@H]1O[C@H](OC(=O)[C@]23CCC(C)(C)CC2C2=CCC4[C@@]5(C)C[C@H](O)[C@H](O[C@@H]6O[C@H](CO)[C@@H](O)[C@H](O)[C@H]6O)[C@@](C)(C(=O)O)[C@@H]5CC[C@@]4(C)[C@]2(CO)CC3)[C@@H](O[C@H]2O[C@H](C)[C@@H](O[C@@H]3OC[C@@H](O[C@@H]4OC[C@](O)(CO)[C@H]4O)[C@H](O)[C@H]3O[C@H]3O[C@@H](CO)[C@@H](O)[C@@H](O)[C@@H]3O)[C@H](O)[C@@H]2O)[C@H](O)[C@@H]1O` (stereo not given in full): the half-maximal inhibitory concentration (IC50) in experiment [1] and in experiment [2] was greater than 5 µg/mL in each case.
For `C[C@@H]1O[C@H](OC(=O)[C@]23CCC(C)(C)CC2C2=CCC4[C@@]5(C)C[C@H](O)[C@H](O[C@@H]6O[C@H](CO)[C@@H](O)[C@H](O)[C@H]6O)[C@@](C)(C(=O)O)[C@@H]5CC[C@@]4(C)[C@]2(CO)CC3)[C@@H](O[C@H]2O[C@H](C)[C@@H](O[C@@H]3OC[C@@H](O[C@@H]4O[C@H](CO)[C@H](O)[C@H](O)[C@H]4O)[C@H](O[C@@H]4OC[C@H](O)[C@H](O)[C@H]4O)[C@H]3O)[C@H](O)[C@@H]2O)[C@H](O)[C@@H]1O` (stereo not given in full), the concentration for half-maximal inhibition (IC50) in experiment [1] and in experiment [2] was greater than 5 µg/mL in each case.
Take `C[C@@H]1O[C@H](OC(=O)[C@]23CCC(C)(C)CC2C2=CCC4[C@@]5(C)C[C@H](O)[C@H](O[C@@H]6O[C@H](CO)[C@@H](O)[C@H](O)[C@H]6O)[C@@](C)(C(=O)O)[C@@H]5CC[C@@]4(C)[C@]2(CO)CC3)[C@@H](O[C@H]2O[C@H](C)[C@@H](O[C@@H]3OC[C@@H](O)[C@H](O[C@@H]4OC[C@](O)(CO)[C@H]4O)[C@H]3O)[C@H](O)[C@@H]2O)[C@H](O)[C@@H]1O` (stereo not given in full): the 50% inhibitory concentration (IC50) in experiment [1] and in experiment [2] was greater than 5 µg/mL each time.
Turning to `C[C@@H]1O[C@H](OC(=O)[C@]23CCC(C)(C)CC2C2=CCC4[C@@]5(C)C[C@H](O)[C@H](O[C@@H]6O[C@H](CO)[C@@H](O)[C@H](O)[C@H]6O)[C@@](C)(C(=O)O)[C@@H]5CC[C@@]4(C)[C@]2(CO)CC3)[C@@H](O[C@H]2O[C@H](C)[C@@H](O[C@@H]3OC[C@@H](O[C@@H]4O[C@H](CO)[C@H](O)[C@H](O)[C@H]4O)[C@H](O[C@@H]4OC[C@H](O)[C@H](O)[C@H]4O)[C@H]3O)[C@H](O[C@@H]3OC[C@](O)(CO)[C@H]3O)[C@@H]2O)[C@H](O)[C@@H]1O` (stereo not given in full), the IC50 in experiment [1] and in experiment [2] was greater than 5 µg/mL throughout.
For `CC(=O)O[C@H]1C(=O)[C@@]2(C)[C@H]([C@H](OC(=O)c3ccccc3)[C@]3(O)C[C@H](OC(=O)[C@H](O)[C@@H](NC(=O)c4ccccc4)c4ccccc4)C(C)=C1C3(C)C)[C@]1(OC(C)=O)CO[C@@H]1C[C@@H]2O` [PACLITAXEL], the values for the IC50 in experiment [1] and in experiment [2] were 0.0053 µg/mL (≈ 0.00621 µM) and 0.008 µg/mL (≈ 0.00937 µM), respectively.

Broadly, the IC50 is the concentration at which inhibition is half-maximal. The low end stands for inhibition by little substance, the high end for a need for much substance.
